Laboratory results as given in paper PMC10743905, “Design, Synthesis, and In Vitro and In Vivo Bioactivity Studies of Hydrazide–Hydrazones of 2,4-Dihydroxybenzoic Acid” (International Journal of Molecular Sciences, 2023).
Values after ≈ are worked out from the molar mass of the structure shown. Where two headings read alike, the source gives them in different places.

Tests used:
[1] = test system: reference Gram-positive bacteria; test: Broth microdilution, summary over the Gram-positive panel; assay type: cell-based
From the text: In vitro antimicrobial activity assays - Methodology
The examined compounds 1 - 24 were screened in vitro for antibacterial and antifungal activities using the broth microdilution method according to procedure reported earlier by our research group and European Committee on Antimicrobial Susceptibility Testing (EUCAST) and Clinical and Laboratory Standards Institute (CLSI) guidelines against a panel of reference and clinical or saprophytic strains of microorganisms, in-cluding Gram-positive bacteria, Staphylococcus aureus ATCC 43300 (Methicillin Resistant S. aureus – MRSA), Staphylococcus aureus ATCC 29213 (Methicillin Susceptible S. aureus – MSSA), Staphylococcus epidermidis ATCC 12228, Enterococcus faecalis ATCC 29212, Micro-coccus luteus ATCC 10240, Bacillus subtilis ATCC 6633 and Bacillus cereus ATCC 10876), Gram-negative bacteria (Bordetella bronchiseptica ATCC 4617, Escherichia coli ATCC 25922, Klebsiella pneumoniae ATCC 13883, Proteus mirabilis ATCC 12453, Salmonella typhimurium ATCC 14028 and Pseudomonas aeruginosa ATCC 9027) and fungi belonging to yeasts (Can-dida albicans ATCC 10231, Candida albicans ATCC 2091, Candida parapsilosis ATCC 22019, Candida glabrata ATCC 90030 and Candida krusei ATCC 14243). The microorganisms be-longing to ATCC came from American Type Culture Collection, routinely used for the evaluation of antimicrobials. […]
Samples containing examined compounds were dissolved in dimethyl sulfoxide (DMSO). […]
Subsequently, the MIC (Minimal Inhibitory Concentration) of the compounds was ex-amined by the microdilution broth method, using their two-fold dilutions in Mueller- […]
Hinton broth or (for bacteria) and RPMI 1640 broth with MOPS (for fungi) prepared in 96-well polystyrene plates. Final concentrations of the compounds ranged from 1000 to 0.488 µg/ml. Microbial suspensions were prepared in 0.85% NaCl with an optical density of 0.5 McFarland standard. Next each bacterial or fungal suspension was added per each well containing broth and various concentrations of the examined compounds. After incuba-

[2] = test system: HepG2; test: MTT antiproliferative assay; assay type: cell-based; conditions: Homo sapiens, 24 h incubation, hepatocellular carcinoma
Description: The in vitro studies were performed on the reference line HEK-293 (human embryonic kidney cells, ATCC® CRL-1573™) and […] human cancer cell lines: 769-P (adenocarcinoma, renal cells, ATCC® CRL-1933™) and HepG2 (carcinoma, hepatocellular, ATCC® HB-8065™), H1563 (adenocarcinoma, non-smallcell lung cancer, ATCC® CRL-5875™), LN-229 (glioblastoma, ATCC® CRL-2611™). Cells from the 769-P and H1563 cell lines were cultured in RPMI-1640 growth medium (PAN Biotech GmbH, Aidenbach, Bayern, Germany), cells from the HEK-293 and HepG2 cell lines were cultured in EMEM growth medium (PAN Biotech GmbH, Aidenbach, Bayern, Germany), and cells from the LN-229 cell line were cultured in DMEM growth medium (PAN Biotech GmbH, Aidenbach, Bayern, Germany) in sterile 75 cm^2 culture phalcones. Fetal bovine serum (PAN Biotech GmbH, Aidenbach, Bayern, Germany) at 10% of growth medium and antibiotics (Sigma-Aldrich, Poland) (2.5 µg/mL amphotericin B, 100 µg/mL penicillin, and 100 µg/mL streptomycin) were added to all media. Cells were cultured at 37 °C in an incubator with 5% CO2 flow until a cell layer was formed. Following this, the medium was removed, and the cells were washed with 0.25% trypsin solution with 2.21 mM EDTA (Corning Incorporated, Corning, NY, USA) in order to completely remove fetal bovine serum containing trypsin inhibitor. Finally, 6 mL of complete growth medium was added, and the cells were aspirated by gentle pipetting.
The determination of inhibitory concentration (IC50) in the HEK-293, 769-P, HepG2, H1563, and LN-229 cell cultures for selected hydrazide–hydrazones was performed using the MTT assay procedure. This test was performed according to the MTT Assay ECVAM n°17 protocol manual prepared by the European Centre for the Validation of Alternative Methods (ECVAM), an entity that aims to reduce in vivo testing in favor of in vitro and in silico methods. To 96-well sterile plates, 100 μL of cell suspensions, prepared in the appropriate medium at a concentration of 3 × 10^5 cells/mL, was added using a multichannel pipette. To achieve cell adhesion to the bottom of the plates, cells were incubated for 24 h at 37 °C with 5% CO2 flow and 90% humidity. […] After this time, all medium was removed, 100 μL of DMSO (Corning Incorporated, Corning, NY, USA) was added to each well, and absorbance measurements were performed at 550 nm using a Power Weave xs spectrophotometric microplate reader (BioTek, Winooski, VT, USA). The decrease in absorbance is equivalent to the decrease in MTT formazan production, which is due to the decrease in mitochondrial dehydrogenase activity and indicates a cytotoxic effect from the tested substances. Cell viability is expressed as a percentage as the ratio of the absorbance of test substance-treated cells to the untreated cells. […]

| SMILES | MBC [1] [µg/mL] | MIC ([1]; read-out: MIC) [µg/mL] | IC50 [2] [µM] | MIC [1] [µg/mL] |
| --- | --- | --- | --- | --- |
| O=C(N/N=C/c1cc(I)cc(I)c1O)c1ccc(O)cc1O [Compound 18, 2,4-dihydroxy-N-[(2-hydroxy-3,5-diiodophenyl)methylidene]benzohydrazide] | 1.95 to 31.2 (≈ 3.72 to 59.6 µM) | 0.48 to 7.81 (≈ 0.916 to 14.9 µM) |  |  |
| O=C(N/N=C/c1ccccc1F)c1ccc(O)cc1O [Compound 24, N-[(2-fluorophenyl)methylidene]-2,4-dihydroxybenzohydrazide] |  |  | > 500 |  |
| CCCc1ccc(/C=N/NC(=O)c2ccc(O)cc2O)cc1 [Compound 13, 2,4-dihydroxy-N-[(4-propylphenyl)methylidene]benzohydrazide] | > 1000 | 1000 (≈ 3350 µM) |  |  |
| O=C(N/N=C/c1cccc([N+](=O)[O-])c1)c1ccc(O)cc1O [Compound 20, 2,4-dihydroxy-N-[(3-nitrophenyl)methylidene]benzohydrazide] |  |  | > 500 |  |
| O=C(N/N=C/c1ccccc1[N+](=O)[O-])c1ccc(O)cc1O [Compound 19, 2,4-dihydroxy-N-[(2-nitrophenyl)methylidene]benzohydrazide] |  |  | > 500 | 250 to 1000 (≈ 830 to 3320 µM) |
| O=C(N/N=C/c1ccc([N+](=O)[O-])cc1)c1ccc(O)cc1O [Compound 21, 2,4-dihydroxy-N-[(4-nitrophenyl)methylidene]benzohydrazide] |  |  | 7.81 | 500 to 1000 (≈ 1660 to 3320 µM) |
